Data taken from paper PMC9598407, “Identification of Staphylococcus aureus Penicillin Binding Protein 4 (PBP4) Inhibitors” (Antibiotics, 2022).
“Also recorded” adds a separate entry of the source.

Assays:
S. aureus strain USA300 = experiment: microbe, parasite or virus in culture; assay type: cell-based; settings: Staphylococcus aureus, USA300, read-out: Ceftobiprole resistance (MIC) in the presence of compound
Experimental: Fractional inhibitory testing was performed in checkerboard format to determine whether putative PBP4 inhibitors potentiated the antimicrobial effects of β-lactams toward S. aureus strains USA300 and CRB, as previously described. To do so, in triplicate 10^5 CFU of each strain (10 µL) was added to individual wells of a microtiter plate containing 90 µL MH media. […] Plates were incubated at 37 °C for 16–20 h and the lowest concentration of each test agent that inhibited bacterial growth alone or in combination was determined by the naked eye. The fractional inhibitory concentration (FIC) index was calculated using the formula: FIC of A (MIC of drug A in combination/MIC of drug A alone) + FIC B ([…]/MIC of drug B alone). A synergistic interaction was defined as a FICI value of less than 0.5, an additive interaction was defined as a FICI value between 0.5 and 1.0, an indifferent interaction was defined as a FICI value between 1.0 and 4.0, and an antagonistic interaction was defined as a FICI value of more than 4.0 [46].

[1] = tested on: pbp4 expression in S. aureus USA300; experiment: qRT-PCR of pbp4 transcript titers, USA300; assay type: cell-based, Staphylococcus aureus; settings: 25 µM compound, 3 h
Text: (§1) Given that each of the six compounds appeared to affect PBP4-mediated antibiotic resistance, we considered that their effects may be modulated by either inhibiting the protein’s function or by reducing pbp4 expression, the latter of which may be readily overcome by regulatory mutations that could in-turn easily result in resistance. Thus, we sought to prioritize compounds that may affect the protein’s function and de-prioritize compounds that affect the protein’s expression. Quantitative real-time reverse transcriptase PCR (qRT-PCR) was used to measure the pbp4 transcript titers within USA300 and CRB cells following compound treatment (Figure 2). […] We chose to focus the remainder of our studies on 9314848 (Figure 3A) because the molecule appeared the more druggable and chemically tractable for downstream structure activity relationship studies.
(§2) PBP4 transcript titers of bacterial cells exposed to putative PBP4 inhibitors were measured using real time quantitative PCR (RT-qPCR), as previously described. […] Bacterial RNA was amplified and measured using PerfeCTa SYBR Green FastMix and qScript cDNA SuperMix kits following the manufacturer’s recommendations (QuantaBio, Beverly, MA, USA). […]

[2] = tested on: pbp4 expression in S. aureus CRB; experiment: qRT-PCR of pbp4 transcript titers, CRB; assay type: cell-based, Staphylococcus aureus; settings: 25 µM compound, 3 h
Text: as §1, §2

S. aureus USA300 [3] = experiment: Triton X-100 susceptibility growth study; assay type: cell-based, Staphylococcus aureus; settings: wild type USA300, 12.5 µM compound
Text: Cheung and colleagues have shown that S. aureus tolerance to Triton X-100 is mediated by PBP4 [25]. More directly, wild type cells are tolerant of 0.1% of the detergent, while pbp4 mutant cells are not. Accordingly, as a first test of whether 9314848 may affect PBP4’s cellular function, we evaluated whether compound treated wild type cells phenocopy the growth defect of pbp4 mutant cells in the presence of 0.1% triton X-100 (Figure 3B).
The effect of putative PBP4 inhibitors on bacterial growth in media supplemented with Triton X-100 was measured, as previously described. […] Cell suspensions were incubated at 37 °C with aeration and cell density (OD600nm) was recorded hourly for a total of 7–8 h.

S. aureus USA300 [4] = experiment: µSiM-CA membrane transmigration; assay type: cell-based, Staphylococcus aureus
Experimental: Thus, we tested 9314848 for its ability to eliminate S. aureus migration through µSiM-CA membrane pores. […] Conversely, the USA300∆pbp4 strain was unable to efficiently transverse the membrane, verifying that PBP4 is required for S. aureus membrane transmigration, as previously reported. To evaluate whether 9314848 is capable of eliminating PBP4-associated S. aureus µSiM-CA membrane migration, 1 × 10^7 CFU wild type cells were incubated with 0, 3.125, 6.25, 12.5, or 25 µM of the compound for 2 h then applied to the top chamber of the device. Following incubation, cells in the top and bottom chambers were enumerated.
The effect of PBP4 inhibitors on S. aureus migration through 500 nm nanoporous membranes modeling the orifices of osteocyte lacuno-canalicular networks was investigated using a µSiM-CA device, as previously described. Briefly, µSIM-CA systems were fabricated by SiMPore Inc. (West Henrietta, NY, USA) to include a top and a bottom chamber that were separated by 400 nm thick silicon nitride membrane containing an array of 500 nm pores, allowing for quantification of bacteria that migrate from the apical (top) well to the basal (bottom) well. To measure bacterial migration through the device membrane, S. aureus strains USA300 or USA300∆pbp4 were grown overnight at 37 °C with aeration, diluted (1:100) in fresh MH media, and then grown to mid-exponential phase (OD600nm = 0.2) in the presence or absence of putative PBP4 inhibitor for approximately 2 h at 37 °C shaking with aeration. A total of 100 µL of cell mixture (~1 × 10^7 CFU) was transferred into the top reservoir of the device and incubated for 6 h at 37 °C. A total of 10 µL of media from the apical and basal reservoirs was collected, serial diluted in 0.8% NaCl, and plated on MH agar plates for bacterial enumeration.

`CC1CCN(C(=O)c2cccc(NC(=O)Nc3ccc(Cl)cc3)c2)CC1` [Compound 9314848] was tested, and the MIC (S. aureus strain USA300) was 0.25 µg/mL, the “pbp4 expression (mRNA titer, qRT-PCR)” value [1] was “did not seem to affect pbp4 expression; also recorded: did not significantly impact pbp4 transcription” and the “pbp4 expression (mRNA titer, qRT-PCR)” value [2] was “did not seem to affect pbp4 expression; also recorded: did not significantly impact pbp4 transcription”. The “Growth in the presence of Triton X-100” value (S. aureus USA300 [3]; 0.1% Triton X-100) was “exhibited growth defect”, the “Growth in the absence of detergent” value (S. aureus USA300 [3]; no Triton X-100) was “did not display a growth defect” and the “Viability of cells within the top/treatment chamber” value (S. aureus USA300 [4]; 0-25 µM compound) was “did not affect the viability”. For the same molecule, the “Effect on S. aureus membrane transmigration” value (S. aureus USA300 [4]; concentrations greater than 6.25 µM (2.5 µg/mL)) was “completely inhibited” and the “Effect on S. aureus membrane transmigration” value (S. aureus USA300 [4]; ≤3.125 µM) was “no effect”.
